Measurements as given in the supplement of paper PMC10307832.

Each cell line was assayed with CC(C)(C)c1nc(-c2cccc(NS(=O)(=O)c3c(F)cccc3F)c2F)c(-c2ccnc(N)n2)s1 [Dabrafenib] + COc1cccc2cc(-c3nc([C@H]4CC[C@H](C(=O)O)CC4)n4ncnc(N)c34)[nH]c12 [OSI-027] (partner 0.5 µM) (assay: relative viability (nuclei count vs DMSO), 5 days (fraction); higher = more cells survive). Conditions: first compound 0.3 µM.
Outline: (§1)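 One day after seeding in 1536-well plates, lung cancer cell lines were dosed by pin tool. Dosing was either single-drug or a fixed anchor-drug dose plus five library-drug doses (not always all listed) in √10 steps. After 5 days, nuclei were stained in one fix-and-stain step and counted on 4× images, and relative viability is the nuclei count of treated wells over that of vehicle wells, given as the median of duplicate plates.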

Row | Cell Line | relative viability
1 | NCI-H1792 | 0.753
2 | HCC-15 | 0.622
3 | LU99A | 0.268
4 | EKVX | 0.729
5 | COR-L23 | 0.61
6 | NCI-H1563 | 0.676
7 | NCI-H1623 | 0.489

The cell lines below were run with NC(=O)c1ccc(N(C(N)=O)c2c(F)cccc2F)nc1-c1ccc(F)cc1F [VX-702] + N=C(N)NC(=N)NCCc1ccccc1 [Phenformin] (partner 250 µM) in the same assay as above. Conditions: first compound 0.02 µM.
Outline: as §1

Row | Cell Line | relative viability
8 | ABC-1 | 0.214
9 | CAL-12T | 0.699
10 | NCI-H1944 | 0.228
11 | NCI-H2085 | 0.718
12 | NCI-H2228 | 0.48
13 | NCI-H441 | 0.829
14 | NCI-H522 | 0.584
15 | EMC-BAC-2 | 0.522
16 | NCI-H2170 | 0.475
17 | UMC-11 | 0.34
18 | NCI-H650 | 0.515
19 | LCLC-103H | 0.344
20 | NCI-H596 | 0.587
21 | HCC-827 | 0.417
22 | COR-L 105 | 0.529
23 | NCI-H2126 | 0.545
24 | A549 | 0.128
25 | NCI-H647 | 0.487

Row | Cell Line | relative viability
26 | LOU-NH91 | 0.796
27 | HCC-78 | 0.63
28 | HCC-44 | 0.191
29 | NCI-H1651 | 0.37
30 | NCI-H1755 | 0.638
31 | HOP-62 | 0.809
32 | PC-14 | 0.618
33 | NCI-H1650 | 0.542
34 | ChaGo-K-1 | 0.528
35 | A-427 | 0.306
36 | NCI-H1355 | 0.53
37 | NCI-H1792 | 0.314
38 | HCC-15 | 0.536
39 | LU99A | 0.957
40 | EKVX | 0.235
41 | COR-L23 | 0.484
42 | NCI-H1563 | 0.702
43 | NCI-H1623 | 0.583

Same assay, conditions: first compound 0.2 µM

Row | Cell Line | relative viability
44 | ABC-1 | 0.201
45 | CAL-12T | 0.55
46 | NCI-H1944 | 0.202
47 | NCI-H2085 | 0.728
48 | NCI-H2228 | 0.354
49 | NCI-H441 | 0.992
50 | NCI-H522 | 0.691
51 | EMC-BAC-2 | 0.549
52 | NCI-H2170 | 0.442
53 | UMC-11 | 0.346
54 | LCLC-103H | 0.344
55 | NCI-H596 | 0.749
56 | HCC-827 | 0.457
57 | COR-L 105 | 0.478
58 | NCI-H2126 | 0.521
59 | A549 | 0.19
60 | NCI-H647 | 0.654
61 | LOU-NH91 | 0.819

Row | Cell Line | relative viability
62 | HCC-78 | 0.823
63 | HCC-44 | 0.286
64 | NCI-H1651 | 0.34
65 | NCI-H1755 | 0.608
66 | HOP-62 | 0.656
67 | PC-14 | 0.547
68 | NCI-H1650 | 0.625
69 | ChaGo-K-1 | 0.462
70 | A-427 | 0.303
71 | NCI-H1355 | 0.445
72 | NCI-H1792 | 0.303
73 | HCC-15 | 0.441
74 | LU99A | 0.851
75 | EKVX | 0.189
76 | COR-L23 | 0.492
77 | NCI-H1563 | 0.684
78 | NCI-H1623 | 0.469

Same assay, conditions: first compound 0.6325 µM

Row | Cell Line | relative viability
79 | ABC-1 | 0.229
80 | CAL-12T | 0.609
81 | NCI-H1944 | 0.2
82 | NCI-H2085 | 0.704
83 | NCI-H2228 | 0.324
84 | NCI-H441 | 0.687
85 | NCI-H522 | 0.611
86 | EMC-BAC-2 | 0.526
87 | NCI-H2170 | 0.429
88 | UMC-11 | 0.301
89 | NCI-H650 | 0.44
90 | LCLC-103H | 0.316
91 | NCI-H596 | 0.797
92 | HCC-827 | 0.423
93 | COR-L 105 | 0.448
94 | NCI-H2126 | 0.51
95 | A549 | 0.154
96 | NCI-H647 | 0.46

Row | Cell Line | relative viability
97 | LOU-NH91 | 0.807
98 | HCC-78 | 0.689
99 | HCC-44 | 0.191
100 | NCI-H1651 | 0.341
101 | NCI-H1755 | 0.611
102 | HOP-62 | 0.698
103 | PC-14 | 0.689
104 | NCI-H1650 | 0.411
105 | ChaGo-K-1 | 0.506
106 | A-427 | 0.395
107 | NCI-H1355 | 0.482
108 | NCI-H1792 | 0.45
109 | HCC-15 | 0.525
110 | LU99A | 0.792
111 | EKVX | 0.224
112 | COR-L23 | 0.437
113 | NCI-H1563 | 0.694
114 | NCI-H1623 | 0.917

Same assay, conditions: first compound 2 µM

Row | Cell Line | relative viability
115 | ABC-1 | 0.228
116 | CAL-12T | 0.632
117 | NCI-H1944 | 0.161
118 | NCI-H2085 | 0.702
119 | NCI-H2228 | 0.34
120 | NCI-H441 | 0.918
121 | NCI-H522 | 0.672
122 | EMC-BAC-2 | 0.402
123 | NCI-H2170 | 0.451
124 | UMC-11 | 0.363
125 | NCI-H650 | 0.524
126 | LCLC-103H | 0.325
127 | NCI-H596 | 0.742
128 | HCC-827 | 0.188
129 | COR-L 105 | 0.459
130 | NCI-H2126 | 0.507
131 | A549 | 0.137
132 | NCI-H647 | 0.728

Row | Cell Line | relative viability
133 | LOU-NH91 | 0.504
134 | HCC-78 | 0.676
135 | HCC-44 | 0.225
136 | NCI-H1651 | 0.301
137 | NCI-H1755 | 0.62
138 | HOP-62 | 0.708
139 | PC-14 | 0.483
140 | NCI-H1650 | 0.468
141 | ChaGo-K-1 | 0.499
142 | A-427 | 0.28
143 | NCI-H1355 | 0.494
144 | NCI-H1792 | 0.237
145 | HCC-15 | 0.557
146 | LU99A | 0.643
147 | EKVX | 0.214
148 | COR-L23 | 0.494
149 | NCI-H1563 | 0.592
150 | NCI-H1623 | 0.535

Each cell line was assayed with CC(C)(C)c1nc(-c2cccc(NS(=O)(=O)c3c(F)cccc3F)c2F)c(-c2ccnc(N)n2)s1 [Dabrafenib] + N=C(N)NC(=N)NCCc1ccccc1 [Phenformin] (partner 250 µM) in the same assay as above. Conditions: first compound 0.003 µM.
Outline: as §1

Row | Cell Line | relative viability
151 | ABC-1 | 0.214
152 | CAL-12T | 0.584
153 | NCI-H1944 | 0.182
154 | NCI-H2085 | 0.482
155 | EMC-BAC-2 | 0.518
156 | NCI-H2170 | 0.4
157 | UMC-11 | 0.289
158 | LCLC-103H | 0.304
